{
  "source": "paper PMC8338929",
  "about": "“Acetylation turns leucine into a drug by membrane transporter switching” (Scientific Reports, 2021)",
  "biological_target": "T1, human LAT1 (SLC7A5) (Homo sapiens, UniProt Q01650)",
  "T1 construct": "host or cells: MDCK-II",
  "T1 sequence (Q01650 whole entry)": "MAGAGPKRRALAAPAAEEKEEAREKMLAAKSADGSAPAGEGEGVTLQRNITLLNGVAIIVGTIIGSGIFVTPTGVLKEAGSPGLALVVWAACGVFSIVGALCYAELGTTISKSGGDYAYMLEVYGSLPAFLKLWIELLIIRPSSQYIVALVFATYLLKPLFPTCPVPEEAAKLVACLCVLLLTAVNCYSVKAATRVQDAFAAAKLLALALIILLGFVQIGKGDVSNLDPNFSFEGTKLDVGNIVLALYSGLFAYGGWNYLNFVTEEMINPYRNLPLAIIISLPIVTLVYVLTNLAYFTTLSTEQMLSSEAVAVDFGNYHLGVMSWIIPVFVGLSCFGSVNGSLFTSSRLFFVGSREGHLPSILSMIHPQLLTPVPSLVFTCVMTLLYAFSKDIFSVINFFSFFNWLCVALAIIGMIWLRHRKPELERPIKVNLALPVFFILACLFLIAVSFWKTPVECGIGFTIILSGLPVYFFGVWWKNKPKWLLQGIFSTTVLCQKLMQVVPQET",
  "T1 sequence (P08195 102-630 partner)": "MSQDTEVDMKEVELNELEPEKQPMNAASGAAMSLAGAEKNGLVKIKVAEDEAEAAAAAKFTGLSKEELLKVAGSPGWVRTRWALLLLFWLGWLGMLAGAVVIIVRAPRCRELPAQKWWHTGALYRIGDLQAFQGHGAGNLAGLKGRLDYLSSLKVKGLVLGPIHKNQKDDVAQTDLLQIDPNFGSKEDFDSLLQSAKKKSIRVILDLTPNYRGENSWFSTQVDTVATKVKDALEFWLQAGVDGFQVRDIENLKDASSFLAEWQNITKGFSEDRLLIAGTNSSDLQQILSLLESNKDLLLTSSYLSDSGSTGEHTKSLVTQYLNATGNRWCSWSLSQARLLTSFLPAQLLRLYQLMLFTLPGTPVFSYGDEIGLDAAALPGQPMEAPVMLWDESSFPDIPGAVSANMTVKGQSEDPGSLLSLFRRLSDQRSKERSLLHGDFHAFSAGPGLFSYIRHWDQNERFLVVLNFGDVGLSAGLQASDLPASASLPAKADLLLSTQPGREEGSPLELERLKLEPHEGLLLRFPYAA",
  "experiment": "Inhibition of LAT1 uptake of probe substrate gabapentin in MDCK-II cells",
  "assay_type": "cell-based",
  "settings": "probe gabapentin 10 µM; positive control JPH203 10 µM",
  "procedure": "Transport studies with human PepT1 (SLC15A1), LAT1 (SLC7A5) and MCT1 (SLC16A1) were conducted in MDCK-II cells expressing the human transporter or control cells expressing a vector with Green Fluorescence Protein. Cells were transfected using a proprietary, transient transfection system (OPTI-EXPRESSION Technology, BioIVT). The results from the control cells were used to correct for substrate permeation by routes other than the transporter being investigated in the study. […] Specifically, Net Transporter Mediated Substrate Uptake (pmol/min/cm^2) = (Cellular accumulation in the presence of the transporter) − (Mean cellular accumulation in the absence of the transporter). MDCK-II cells were maintained in DMEM with low glucose and 10% FBS. Cells were used at passages up to 40 were seeded at 60,000 ± 10,000 cells/well on 96-well plates approximately 24 h before transfection, and transport assays were performed approximately 48 h after transfection. […]\nTransport studies with PepT1 were conducted in 96-well cell culture plate with wells containing a monolayer of MDCK-II cells grown on a permeable support and a corresponding 96-well receiver tray. […] Then a 30-µL sample was taken and mixed with 200 µL of scintillation fluid and scintillation counted (1450 Microbeta, Perkin-Elmer). […]",
  "data": [
    {"compound": "CC(=O)N[C@@H](CC(C)C)C(=O)O", "note": "[N-acetyl-L-leucine]", "values": [
      {"measurement": "inhibitor of LAT1", "result": "nor an inhibitor"}
    ]}
  ]
}
